Test results as given in patent US20240325420A1, “COMPOSITION INCLUDING PAEONIFLORIN FOR PREVENTION OR TREATMENT OF CACHEXIA AND MUSCLE LOSS” (CHUNG ANG UNIVERSITY INDUSTRY ACADEMIC COOPERATION …, priority 2021, published 2024).

Columns and labels:
Type in all cases: in vivo
[1] = tested on: C57BL/6 mice with cisplatin-induced cachexia; experiment: Skeletal muscle function test in cisplatin-treated C57BL/6 mice; conditions: oral paeoniflorin 10 or 20 mg/kg
Protocol: (§1) The animal experiments were performed in accordance with internationally accepted principles for laboratory animal use and care, and the corresponding study protocol was reviewed and approved by the Institutional Animal Care and Use Committee (IACUC) at Chung-Ang University (approval #2021-00022). Four-week-old female C57BL/6 mice and Balb/c mice were purchased from Raonbio Inc. (Yongin, Korea) and were provided with standard laboratory diet and water ad libitum in the animal facility of Chung-Ang University. After a week of acclimation, the mice were intraperitoneally injected three times with 3 mg/kg/day cisplatin, suspended in 200 μL saline, every other day. Control group mice (sham-treated mice) were injected with the same volume of saline under the same regimen. The cisplatin-treated groups were orally administered paeoniflroin (Pae) or megestrol acetate (MA), suspended in 200 μL distilled water, every day until euthanasia.
Specifically, the cisplatin-treated groups were orally administered paeoniflorin (prepared in Example 1) at a dose of 5 (Pae 5 group), 10 (Pae 10 group), or 20 (Pae 20 group) mg/kg once daily for 9 days. […]
(§2) A skeletal muscle function test was conducted one day before euthanasia. Muscle strength of each mouse was measured by the grip strength of front paws, and endurance of each mouse was measured by treadmill running time until exhaustion. Motor coordination was measured by retention time on a rotating cylinder with a diameter of 3 cm (Castro and Kuang, 2017). The grip strength of each mouse was measured using a grip strength meter (Bio-GS3, Bioseb, Vitrolles, France). The treadmill running time of each mouse was measured on a treadmill (Exer-3/6, Columbus Instruments, […], USA). The ability of each mouse to stay on a rotating cylinder was measured using a rotarod apparatus (Panlab, Barcelona, Spain).

[2] = tested on: Balb/c mice with cisplatin-induced cachexia; experiment: Skeletal muscle function test in cisplatin-treated Balb/c mice; conditions: oral paeoniflorin
Protocol: as §1, with “Control group mice (sham-treated mice) were injected with the same volume of saline under the same regimen. The cisplatin-treated groups were orally administered paeoniflroin (Pae) or megestrol acetate (MA), suspended in 200 μL distilled water, every day until euthanasia.” left out
as §2

[3] = tested on: NF-κB; experiment: Target DNA binding activity of NF-κB in skeletal muscle (TransAM NF-κB ELISA); conditions: gastrocnemius muscle; C57BL/6 mice; cisplatin-treated; Pae 10 and Pae 20; FIG. 12C
Protocol: Nuclear and cytoplasmic lysates were prepared from the skeletal muscle using a nuclear extraction kit (Active Motif, Carlsbad, CA, USA). The protein concentration of both lysates was measured using the BCA Protein Assay Kit (Pierce). Anti-NF-κB p65 was used as the primary antibody, and 10 μg of protein per lysate was analyzed by Western blotting. TBP (TATA box-binding protein) and β-actin were as controls for the nuclear and cytosolic lysates, respectively. The target DNA binding activity of NF-κB was measured using the TransAM NF-κB ELISA kit (Active Motif, USA).

[4] = tested on: myosin heavy chain (MyHC) and myoblast determination protein (MyoD); experiment: Protein levels of MyHC and MyoD in gastrocnemius muscle by Western blotting; conditions: C57BL/6 mice, cisplatin-treated, Pae 10 and Pae 20 vs vehicle
Protocol: (§3) In addition, cisplatin-treated mice orally administered the same volume of distilled water were designated as the vehicle group. After completion of drug treatment, the mice of each group were euthanized with 10 mg/kg alfaxalone (Jurox, Rutherford, Australia). Blood was collected in test tubes containing EDTA, and centrifuged, and plasma was separated therefrom. Gastrocnemius and quadriceps skeletal muscles were dissected and weighed. The skeletal muscles were rapidly frozen in liquid nitrogen to be used for RT-qPCR, Western blotting, and ELISA.
(§4) Proteins were extracted from skeletal muscle using NucleoSpin kits (Macherey-Nagel, Duren, Germany) and quantified using the BCA Protein Assay Kit (Pierce, Rockford, IL, USA). Anti-β-actin antibody was used to quantify protein loading. For myosin protein (MyHC, myosin heavy chain), myogenic factor (MyoD), and NF-κB signaling system (p-IKK, IKK, p-IκB, and IκB), protein levels in the gastrocnemius muscle were measured by Western blotting. Band intensities were quantified using ImageJ software (NIH, Bethesda, MD, USA).
(§5) In order to measure the mRNA and protein levels of major factors involved in muscle loss, muscle contraction, and muscle differentiation, the mRNA and protein levels in the skeletal muscle tissues from C57BL/6 mice were measured by real-time PCR and Western blotting.

[5] = tested on: TNF-α, IL-6 and IL-1β; experiment: Protein levels of pro-inflammatory cytokines in gastrocnemius muscle, Balb/c mice; conditions: cisplatin-treated
Protocol: as §3
(§6) The levels of TNF-α and interleukin (IL)-6 were measured using respective mouse ELISA kits (Invitrogen, Waltham, MA, USA). IL-1β and GDF-15 levels were measured using respective Quantikine ELISA kits (R&D Systems, Minneapolis, MN, USA).

[6] = tested on: TNF-α; experiment: Plasma TNF-α by ELISA in mice with cisplatin-induced cachexia; conditions: C57B/6 mice; cisplatin plus paeoniflorin-treated group vs cisplatin-treated group; FIG. 13A
Protocol: as §3, §6
The protein concentration of the pro-inflammatory cytokine TNF-α in the plasma of mice was analyzed by ELISA.

[7] = tested on: C57BL/6 mice with cisplatin-induced cachexia; experiment: Body weight and muscle mass in cisplatin-treated C57BL/6 mice
Protocol: as §1
Specifically, the cisplatin-treated groups were orally administered paeoniflorin (prepared in Example 1) at a dose of 5 (Pae 5 group), 10 (Pae 10 group), or 20 (Pae 20 group) mg/kg once daily for 9 days. The comparative drug-treated group was orally administered megestrol acetate (MA), which is currently most commonly prescribed for cancer cachexia patients in clinical practice, at a dose of 160 mg/kg (=800 mg [daily human dose]/60 kg [average human body weight]×12 [dose equivalent factor based on human:mouse body surface area ratio], once daily for 9 days.
as §3

[8] = tested on: muscle-specific ubiquitin E3 ligases (MuRF1 and MAFbx); experiment: mRNA levels of MuRF1 and MAFbx in gastrocnemius muscle by real-time PCR; conditions: C57BL/6 mice, cisplatin-treated, Pae 10 and Pae 20 vs vehicle, FIG. 5
Protocol: as §3
Total RNA was isolated from skeletal muscle using Qiazol (Qiagen, Germany), and then the mRNA levels of pro-inflammatory cytokines and muscle-specific ubiquitin E3 ligases (MuRF1 and MAFbx) were measured by real-time PCR.
as §5

[9] = tested on: muscle-specific ubiquitin E3 ligases (MuRF1 and MAFbx); experiment: Protein levels of MuRF1 and MAFbx in gastrocnemius muscle by Western blotting; conditions: C57BL/6 mice, cisplatin-treated, Pae 10 and Pae 20 vs vehicle
Protocol: as §3, §4, §5

`C[C@@]12C[C@@]3(O)O[C@@H](O1)[C@]1(COC(=O)c4ccccc4)[C@H]3C[C@@]12O[C@@H]1O[C@H](CO)[C@@H](O)[C@H](O)[C@H]1O` [paeoniflorin] was tested, and the “grip strength (muscle strength)” value ([1]; FIG. 3A) was “significantly restored”, the “treadmill running time (endurance)” value ([1]; FIG. 3B) was “significantly restored” and the “rotarod retention time (motor coordination)” value ([1]; FIG. 3C) was “significantly restored”. The muscle strength ([2]; FIG. 4A) was “similarly restored”, the endurance ([2]; FIG. 4B) was “similarly restored” and the “target DNA binding activity of NF-κB” value [3] was “decreased”. For the same molecule, the MyHC protein level ([4]; FIGS. 6C, 7A) was “increased”, the MyoD protein level ([4]; FIGS. 6D, 7B) was “increased” and the “TNF-α protein level in the gastrocnemius muscle” value ([5]; FIG. 9A) was “similarly obtained”. For the same molecule, the “IL-6 protein level in the gastrocnemius muscle” value ([5]; FIG. 9B) was “similarly obtained”, the “IL-1β protein level in the gastrocnemius muscle” value ([5]; FIG. 9C) was “similarly obtained” and the “plasma concentration of TNF-α” value [6] was “significantly decreased”. For the same molecule, the “cisplatin-induced weight loss (body weight)” value ([7]; cisplatin 3 mg/kg/day i.p. three times, paeoniflorin 10 or 20 mg/kg orally daily for 9 days, vs vehicle, FIG. 1A) was “attenuated”, the “weight of gastrocnemius muscle (skeletal muscle mass)” value ([7]; cisplatin-treated, paeoniflorin 10 or 20 mg/kg orally daily, FIG. 1B) was “restored” and the “weight of quadriceps muscle (skeletal muscle mass)” value ([7]; cisplatin-treated, paeoniflorin 10 or 20 mg/kg orally daily, FIG. 1C) was “restored”. The “MAFbx mRNA level” value [8] was “decreased”, the “MuRF1 mRNA level” value [8] was “decreased” and the MuRF1 protein level ([9]; FIG. 6A) was “decreased”. The MAFbx protein level ([9]; FIG. 6B) was “decreased”.
